Data: ChEMBL document CHEMBL4007434, “Indazole-Based Covalent Inhibitors To Target Drug-Resistant Epidermal Growth Factor Receptor” (J Med Chem, 2017)
pIC50, pKi: −log10 of the molar value. Calls of active or inactive are those of the source. The calls are words filed in the database; no cut-off is given here.

Experiments:
[1] = target: T1, Cytoplasmic tyrosine-protein kinase BMX (Homo sapiens) (UniProt P51813); assay: Inhibition of full-length recombinant human His-tagged cytoplasmic BMX expressed in baculovirus expression system at 1 uM by Z'-LYTE assay
T1 sequence (whole entry): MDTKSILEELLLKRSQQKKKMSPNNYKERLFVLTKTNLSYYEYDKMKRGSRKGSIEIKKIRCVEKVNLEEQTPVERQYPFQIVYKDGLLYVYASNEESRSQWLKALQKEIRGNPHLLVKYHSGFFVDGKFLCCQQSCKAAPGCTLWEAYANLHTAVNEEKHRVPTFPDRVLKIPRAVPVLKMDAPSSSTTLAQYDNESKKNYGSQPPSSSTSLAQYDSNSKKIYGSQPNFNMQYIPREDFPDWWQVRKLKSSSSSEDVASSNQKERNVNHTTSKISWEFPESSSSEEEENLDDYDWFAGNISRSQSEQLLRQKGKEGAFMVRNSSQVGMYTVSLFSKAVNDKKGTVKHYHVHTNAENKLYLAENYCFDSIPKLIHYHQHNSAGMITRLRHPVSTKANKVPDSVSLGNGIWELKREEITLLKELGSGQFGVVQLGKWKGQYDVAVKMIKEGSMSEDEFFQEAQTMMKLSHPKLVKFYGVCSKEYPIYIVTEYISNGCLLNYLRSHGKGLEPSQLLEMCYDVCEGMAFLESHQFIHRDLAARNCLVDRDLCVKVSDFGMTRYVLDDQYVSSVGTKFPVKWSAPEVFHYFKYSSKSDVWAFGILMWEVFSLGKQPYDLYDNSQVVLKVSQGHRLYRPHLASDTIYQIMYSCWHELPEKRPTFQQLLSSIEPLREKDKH

[2] = test system: Epidermal growth factor receptor (Homo sapiens), P00533 [L858R,T790M]; conditions: 100 nM
[3] = target: Tyrosine-protein kinase BTK (Homo sapiens) (UniProt Q06187); assay: Inhibition of full-length recombinant human His-tagged cytoplasmic BTK expressed in baculovirus expression system at 1 uM by Z'-LYTE assay
[4] = target: T2, Tyrosine-protein kinase JAK3 (Homo sapiens) (UniProt P52333); assay: Inhibition of recombinant human GST-tagged cytoplasmic JAK3 (781 to 1124 amino acid residues) catalytic domain expressed in baculovirus expression system at 1 uM by Z'-LYTE assay
T2 sequence (whole entry): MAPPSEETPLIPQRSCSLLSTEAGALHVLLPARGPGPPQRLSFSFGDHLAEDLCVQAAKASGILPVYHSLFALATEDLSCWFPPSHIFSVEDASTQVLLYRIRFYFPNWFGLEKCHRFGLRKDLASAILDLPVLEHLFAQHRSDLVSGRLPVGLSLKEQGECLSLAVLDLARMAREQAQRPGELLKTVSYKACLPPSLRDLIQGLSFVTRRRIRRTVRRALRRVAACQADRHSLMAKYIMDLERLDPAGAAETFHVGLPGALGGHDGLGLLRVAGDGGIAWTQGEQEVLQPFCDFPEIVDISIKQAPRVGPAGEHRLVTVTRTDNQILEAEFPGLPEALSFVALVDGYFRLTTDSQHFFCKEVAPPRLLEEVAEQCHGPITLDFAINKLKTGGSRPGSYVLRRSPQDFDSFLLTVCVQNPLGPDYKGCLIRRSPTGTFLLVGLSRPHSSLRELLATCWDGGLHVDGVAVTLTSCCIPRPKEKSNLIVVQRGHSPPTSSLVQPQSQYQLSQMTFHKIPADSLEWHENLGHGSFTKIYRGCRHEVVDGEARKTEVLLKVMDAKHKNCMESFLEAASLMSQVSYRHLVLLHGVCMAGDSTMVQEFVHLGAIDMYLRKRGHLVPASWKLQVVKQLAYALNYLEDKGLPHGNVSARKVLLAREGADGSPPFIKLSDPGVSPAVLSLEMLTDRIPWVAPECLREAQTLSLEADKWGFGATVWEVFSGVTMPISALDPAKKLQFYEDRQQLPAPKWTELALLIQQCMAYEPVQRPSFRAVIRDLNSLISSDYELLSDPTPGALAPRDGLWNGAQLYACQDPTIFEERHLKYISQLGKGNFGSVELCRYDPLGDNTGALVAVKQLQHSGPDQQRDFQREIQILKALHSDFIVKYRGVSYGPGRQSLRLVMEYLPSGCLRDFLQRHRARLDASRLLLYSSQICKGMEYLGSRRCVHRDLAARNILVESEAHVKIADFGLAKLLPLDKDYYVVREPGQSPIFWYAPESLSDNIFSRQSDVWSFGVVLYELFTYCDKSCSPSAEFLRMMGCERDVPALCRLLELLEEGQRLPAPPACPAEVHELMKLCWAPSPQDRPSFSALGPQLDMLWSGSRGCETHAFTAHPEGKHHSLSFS

[5] = test system: Epidermal growth factor receptor (Homo sapiens), P00533 [L858R,T790M]
[6] = test system: Epidermal growth factor receptor (Homo sapiens), P00533 [L858R,T790M]; conditions: 100 nM; remark: listed apart in the source
[7] = target: Epidermal growth factor receptor (Homo sapiens, UniProt P00533, L858R)
[8] = target: Epidermal growth factor receptor (Homo sapiens, UniProt P00533, L858R/T790M); assay: Reversible inhibition of human N-terminal GST-tagged EGFR L858R/T790M double mutant cytoplasmic domain (669 to 1210 end amino acid residues) expressed in baculovirus expression system using TK peptide substrate preincubated for 2 to 90 mins followed by 6-fold dilution
[9] = Stability in human plasma assessed as compound remaining at 5 uM after 1 hr by LCMS analysis; format: ADME, cell-free; conditions: read-out: Stability
[10] = test system: Epidermal growth factor receptor (Homo sapiens), P00533 [L858R,T790M,C797S]; assay: Inhibition of EGFR L858R/T790M/C797S triple mutant (unknown origin) by HTRF assay
[11] = target: Epidermal growth factor receptor (Homo sapiens, UniProt P00533); format: ADME
Liver = assay: Stability in mouse liver microsomes at 3 uM up to 50 mins by LCMS analysis; format: ADME, microsome
[12] = test system: Epidermal growth factor receptor (Homo sapiens), P00533 [L858R,T790M]; conditions: 100 nM; remark: listed apart in the source

Chain of Epidermal growth factor receptor (Homo sapiens), P00533 [L858R,T790M] (P00533 whole entry T790M/L858R, looked up): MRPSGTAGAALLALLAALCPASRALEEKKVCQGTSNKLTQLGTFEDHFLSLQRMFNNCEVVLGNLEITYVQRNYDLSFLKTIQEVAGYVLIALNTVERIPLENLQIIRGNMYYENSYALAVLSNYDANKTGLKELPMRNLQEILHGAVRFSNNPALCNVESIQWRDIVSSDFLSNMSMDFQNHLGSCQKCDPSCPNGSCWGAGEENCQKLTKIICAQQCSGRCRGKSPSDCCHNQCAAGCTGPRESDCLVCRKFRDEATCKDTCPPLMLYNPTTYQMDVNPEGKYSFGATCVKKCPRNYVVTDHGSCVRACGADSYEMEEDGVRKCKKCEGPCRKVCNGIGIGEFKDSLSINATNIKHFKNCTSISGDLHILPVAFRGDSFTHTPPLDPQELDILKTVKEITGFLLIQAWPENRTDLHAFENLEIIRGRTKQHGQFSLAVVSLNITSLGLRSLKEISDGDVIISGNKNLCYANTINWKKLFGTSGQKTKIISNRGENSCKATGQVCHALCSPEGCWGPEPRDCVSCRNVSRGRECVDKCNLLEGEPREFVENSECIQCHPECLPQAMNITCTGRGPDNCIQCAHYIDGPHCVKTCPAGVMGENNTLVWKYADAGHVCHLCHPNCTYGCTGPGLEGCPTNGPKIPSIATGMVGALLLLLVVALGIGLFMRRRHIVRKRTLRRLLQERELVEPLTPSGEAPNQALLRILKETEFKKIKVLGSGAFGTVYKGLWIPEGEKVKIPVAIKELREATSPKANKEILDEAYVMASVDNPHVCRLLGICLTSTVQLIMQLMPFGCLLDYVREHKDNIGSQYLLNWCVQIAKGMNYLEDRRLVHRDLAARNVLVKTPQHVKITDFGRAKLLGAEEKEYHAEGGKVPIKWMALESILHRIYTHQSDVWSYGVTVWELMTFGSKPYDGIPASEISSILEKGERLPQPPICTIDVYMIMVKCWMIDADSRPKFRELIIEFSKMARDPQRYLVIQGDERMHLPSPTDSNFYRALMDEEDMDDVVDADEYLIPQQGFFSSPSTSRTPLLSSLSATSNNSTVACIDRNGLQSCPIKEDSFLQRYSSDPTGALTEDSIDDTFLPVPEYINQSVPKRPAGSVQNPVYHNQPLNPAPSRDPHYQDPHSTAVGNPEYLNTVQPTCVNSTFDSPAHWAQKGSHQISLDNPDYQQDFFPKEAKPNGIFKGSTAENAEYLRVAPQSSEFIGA
Chain of Epidermal growth factor receptor (Homo sapiens, UniProt P00533, L858R) (P00533 25-1210 L858R limits assumed): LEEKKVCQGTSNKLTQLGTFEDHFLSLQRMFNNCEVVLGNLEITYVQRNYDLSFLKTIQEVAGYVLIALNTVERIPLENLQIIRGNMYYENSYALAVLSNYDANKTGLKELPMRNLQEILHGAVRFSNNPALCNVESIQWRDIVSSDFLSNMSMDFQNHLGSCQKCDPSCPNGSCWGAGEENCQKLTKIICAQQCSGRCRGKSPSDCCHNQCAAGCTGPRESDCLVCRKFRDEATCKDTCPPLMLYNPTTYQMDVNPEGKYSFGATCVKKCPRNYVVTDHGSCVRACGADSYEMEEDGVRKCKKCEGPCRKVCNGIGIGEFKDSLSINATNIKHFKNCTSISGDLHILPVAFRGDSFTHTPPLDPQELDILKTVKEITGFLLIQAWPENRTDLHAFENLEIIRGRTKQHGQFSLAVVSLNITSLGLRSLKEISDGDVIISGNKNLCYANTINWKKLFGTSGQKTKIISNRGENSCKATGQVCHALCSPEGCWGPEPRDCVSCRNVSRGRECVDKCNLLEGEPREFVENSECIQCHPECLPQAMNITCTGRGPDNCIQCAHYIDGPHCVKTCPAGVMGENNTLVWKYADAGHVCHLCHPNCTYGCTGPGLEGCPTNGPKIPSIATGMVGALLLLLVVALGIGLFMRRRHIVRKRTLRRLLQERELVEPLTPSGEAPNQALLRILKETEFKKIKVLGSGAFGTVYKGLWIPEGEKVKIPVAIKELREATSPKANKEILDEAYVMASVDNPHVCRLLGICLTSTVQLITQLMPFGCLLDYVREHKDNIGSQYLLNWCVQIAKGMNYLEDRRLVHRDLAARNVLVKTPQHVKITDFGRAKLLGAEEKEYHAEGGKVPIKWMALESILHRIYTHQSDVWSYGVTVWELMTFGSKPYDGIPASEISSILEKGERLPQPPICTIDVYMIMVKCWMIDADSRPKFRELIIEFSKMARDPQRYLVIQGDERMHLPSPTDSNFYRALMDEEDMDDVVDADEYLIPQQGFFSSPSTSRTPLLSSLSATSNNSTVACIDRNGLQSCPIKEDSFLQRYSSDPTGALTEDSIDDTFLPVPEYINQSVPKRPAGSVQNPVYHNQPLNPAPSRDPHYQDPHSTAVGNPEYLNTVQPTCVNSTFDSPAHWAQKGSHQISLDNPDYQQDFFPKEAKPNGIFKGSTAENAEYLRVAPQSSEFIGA
Chain of Tyrosine-protein kinase BTK (Homo sapiens) (Q06187 whole entry, the tested form may be a part): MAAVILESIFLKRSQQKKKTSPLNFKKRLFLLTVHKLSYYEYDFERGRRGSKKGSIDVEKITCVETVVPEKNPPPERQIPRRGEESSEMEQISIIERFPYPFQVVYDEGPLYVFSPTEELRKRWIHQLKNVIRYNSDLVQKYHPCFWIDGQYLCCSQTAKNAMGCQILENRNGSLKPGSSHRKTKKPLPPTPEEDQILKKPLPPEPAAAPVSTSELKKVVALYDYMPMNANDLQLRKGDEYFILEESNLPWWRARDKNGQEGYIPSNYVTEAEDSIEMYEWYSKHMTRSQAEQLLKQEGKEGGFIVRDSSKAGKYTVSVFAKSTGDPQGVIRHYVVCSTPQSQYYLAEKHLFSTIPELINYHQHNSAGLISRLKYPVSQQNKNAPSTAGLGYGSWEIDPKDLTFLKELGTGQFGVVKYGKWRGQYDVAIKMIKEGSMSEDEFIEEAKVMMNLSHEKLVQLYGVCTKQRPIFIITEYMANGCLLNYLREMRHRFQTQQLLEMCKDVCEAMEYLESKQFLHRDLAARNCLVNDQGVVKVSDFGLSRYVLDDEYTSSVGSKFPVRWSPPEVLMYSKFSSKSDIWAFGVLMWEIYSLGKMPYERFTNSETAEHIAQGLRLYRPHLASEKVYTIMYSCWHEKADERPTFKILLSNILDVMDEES
Chain of Epidermal growth factor receptor (Homo sapiens, UniProt P00533, L858R/T790M) (P00533 25-1210 T790M/L858R limits assumed): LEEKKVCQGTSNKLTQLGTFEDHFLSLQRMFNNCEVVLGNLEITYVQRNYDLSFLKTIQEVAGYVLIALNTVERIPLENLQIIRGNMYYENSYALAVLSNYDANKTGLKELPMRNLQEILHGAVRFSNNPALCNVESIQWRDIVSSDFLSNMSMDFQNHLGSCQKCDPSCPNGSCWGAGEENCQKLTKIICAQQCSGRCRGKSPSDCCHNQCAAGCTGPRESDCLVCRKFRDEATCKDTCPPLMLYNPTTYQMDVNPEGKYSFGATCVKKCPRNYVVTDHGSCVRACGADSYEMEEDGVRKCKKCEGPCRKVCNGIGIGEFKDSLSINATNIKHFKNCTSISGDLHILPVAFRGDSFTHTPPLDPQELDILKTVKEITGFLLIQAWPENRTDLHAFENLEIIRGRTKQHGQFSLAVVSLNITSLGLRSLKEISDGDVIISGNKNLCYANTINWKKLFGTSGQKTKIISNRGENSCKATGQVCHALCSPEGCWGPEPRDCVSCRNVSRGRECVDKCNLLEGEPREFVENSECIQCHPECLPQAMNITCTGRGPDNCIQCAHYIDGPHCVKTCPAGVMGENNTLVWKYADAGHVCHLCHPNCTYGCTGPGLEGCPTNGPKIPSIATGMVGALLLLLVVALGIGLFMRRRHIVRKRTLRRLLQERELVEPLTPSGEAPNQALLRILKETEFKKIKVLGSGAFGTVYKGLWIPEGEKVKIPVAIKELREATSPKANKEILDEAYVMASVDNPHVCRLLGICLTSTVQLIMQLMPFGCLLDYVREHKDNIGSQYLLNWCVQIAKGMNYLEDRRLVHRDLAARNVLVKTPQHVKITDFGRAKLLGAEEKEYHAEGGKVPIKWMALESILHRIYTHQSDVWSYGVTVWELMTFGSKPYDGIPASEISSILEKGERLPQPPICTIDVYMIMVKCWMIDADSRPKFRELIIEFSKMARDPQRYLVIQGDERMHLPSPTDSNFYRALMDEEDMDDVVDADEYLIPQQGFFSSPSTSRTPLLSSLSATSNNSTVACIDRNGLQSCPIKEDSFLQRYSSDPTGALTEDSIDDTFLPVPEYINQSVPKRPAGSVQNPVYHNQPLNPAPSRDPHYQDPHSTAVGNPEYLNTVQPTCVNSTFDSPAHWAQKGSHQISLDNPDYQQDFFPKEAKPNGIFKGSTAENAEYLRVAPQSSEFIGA

## C=CC(=O)Nc1cc(Nc2n[nH]c3cc(Nc4cccc(F)c4)ccc23)c(OC)cc1N(C)CCN(C)C
[1]
  inhibition: > 85%
[2]
  inhibition: Active
[3]
  inhibition: > 85%
[4]
  inhibition: > 85%
[5]
  Kinact: 0.17 min⁻¹
[6]
  inhibition: Active
[7]
  pIC50: > 9.00
[8]
  pKi: 8.13
[9]
  remaining at 1 h, 5 µM: > 75%
[10]
  inhibition: inactive
[11]
  pIC50: > 9.00
Liver
  Stability: Stable
[12]
  inhibition: Active
